Measured values from US20040152903A1, “6-chloro-3-pyridylmethylpropylamine derivatives, preparation process thereof and bactericides” (priority 2004, published 2004).

Experiments:
wheat powdery mildew [1] = experiment: Test of control effect on wheat powdery mildew; format: in vivo; parameters: Control Value: scale not given here; conditions: wettable powder 125 mg/l, 100 liters/10 a, wheat seedlings (Nourin 64), examined 9th to 14th day after inoculation
Description: (Test of Control Effect on Wheat Powdery Mildew) Wettable powders were prepared from compounds of the present invention I-1 to I-27 and comparative compounds (a) to (d), (m-1) and (m-3). The obtained wettable powder was diluted and suspended with water to provide the predetermined concentration (125 mg/l), and was sprinkled onto seedlings of wheat (variety: “Nourin 64”) at the first to the second leaf period which were cultivated using square plastic pots (size: 6.4 cm×6.4 cm) in a rate of 100 liters/10 a (ares). After drying the sprinkled leaves with air, a suspension of wheat powdery mildew spores taken from infected leaves was inoculated by spraying onto the sprinkled leaves. They were supervised in a green house (temperature: 20 to 24° C., relative humidity: 20 to 70 RH). On the 9th to 14th day after the inoculation, the infection degree was examined according to the following scale and the control value of each compound was calculated by the following calculation equation 1. [table]

cucumber powdery mildew = experiment: Test of control effect on cucumber powdery mildew; format: in vivo; conditions: wettable powder 100 mg/l, 100 liters/10 a, cucumber (Sagamihanpakufushinari), examined 9th to 14th day after inoculation
Description: (Test of Control Effect on Cucumber Powdery Mildew) The wettable powders formulated by using each of the compounds I-1 to 27 according to the present invention and the comparative compounds (a) to (d), (m-1) and (m-3) were each diluted and suspended with water to a predetermined concentration (100 mg/l), the suspension was sprinkled over the first to the second leaf period cucumbers (variety: “[…]”) cultivated by using a square plastic pot (size: 6.4 cm×6.4 cm) in a rate of 100 liters/10 a (ares). After the sprinkled leaves were air-dried, the spores were inoculated over the leaves by sprinkling the same with a brush from an infected leaf, a disease was contracted in a glass house (temperature: 20 to 24° C., relative humidity: 20 to 70 RH). On the 9th to 14th day after the inoculation, the infection degree was examined according to the following scale and the control value of each compound was calculated by the following calculation equation 2: (Examination Scale) [table]

Botrytis cinerea = experiment: Antifungal activity test (PDA plate, hypha extension inhibition); format: cell-based; conditions: 1.6 ppm in PDA culture medium
Description: (Antifungal Activity Test against Various Pathogenic Fungi) For each of the compounds I-1 to 27 of the present invention and the comparative compounds (a) to (d), (m-1) and (m-3), 20 mg was weighed and dissolved in 2 ml of dimethylsulfoxide, and a double dilution row in 10 steps was prepared by further using dimethylsulfoxide. A 0.6 ml portion of these solutions was each added to 60 ml of a PDA culture medium (potato-dextrose-agar culture medium) at about 60° C., they were well mixed in a 100 ml Erlenmeyer flask, the solution was poured into a schale and was solidified, the plate culture media containing the compounds according to the present invention with final concentrations of 100, 50.0, 25.0, 12.5, 6.3, 3.2, 1.6, 0.8, 0.4 and 0.2 mg/l were prepared. On the other hand, the specimen bacteria cultured on the plate culture media beforehand was punched by a 4 mm diameter cork borer, and was inoculated on the plate culture media containing the aforementioned chemicals. After the inoculation, the bacteria were cultured at the optimum growth temperature of each bacterium for 1 to 7 days (for this optimum growth temperature, LIST OF CULTURES 1996 Microorganisms 10th edition published by Fermentation Research Institute (Foundation) can be referred to.), and the growth of the bacteria was measured by the diameter of a colony. […] R=100(dc−dt)/dc (Equation 3) [wherein each symbol is shown as follows: R=Hypha extension inhibition rate (%), dc=Diameter of colony on no-treated plate, dt=Diameter of colony on chemical-treated plate.] The results obtained above was evaluated in 5 steps in accordance with the following examination scale. <Growth Inhibition> 5: Hypha extension inhibition rate of 90% or more 4: Hypha extension inhibition rate of from 70% to less than 90% 3: […] 2: […] In addition, the abbreviations in Table 10 are as follows: B.c: Botrytis cinerea

wheat powdery mildew [2] = experiment: Permeable mobility fungicidal effect test in leaf section of wheat powdery mildew; format: in vivo; conditions: length of non-contracted area relative to compound (m-2); 200 mg/l, 0.5 μl applied to wheat leaf (Abukumawase)
Description: (Permeable Mobility Fungicidal Effect Test in Leaf Section of Wheat Powdery Mildew) In the test example 4, permeable mobility fungicidal effect test was performed on the leaf section of wheat powdery mildew with regard to the compounds I-1 to 27 according to the present invention and the comparative compounds (a) to (d), and (m-1) to (m-3) with the method described later. <Test Method> The compound in the form of a wettable powder obtained by Formulation 2 or the like was diluted and suspended with water to a predetermined concentration (200 mg/l), and 0.5 μl of the suspension was applied to a 2 to 3 cm leaf portion from the root of the three leaves of the 4th to 4.5th leaf period wheat (variety: Abukumawase) cultured by using a square plastic pot (size: 6.4 cm×6.4 cm). After these wheat leaves were subject to still standing in a glass house (temperature: 20 to 24° C., relative humidity: 20 to 70 RH) for one day, the spores of wheat powdery mildew were inoculated over the leaves by sprinkling the same with a brush from an infected leaf, a disease was contracted in the same glass house. The length of a non-contracted area generated from the applied portion to the direction of the leaf top was measured, and a relative mobility to the compound (m-2) was calculated with the following calculation […] by using the comparative compound (m-2) as a standard compound. Relative mobility=(Length of non-contracted area in each chemical section (cm)/Length of non-contracted area of compound (m-2) (cm)) (Equation 4)

| SMILES | pest or weed control at 125 µg/mL (wheat powdery mildew [1]; Triticum aestivum) | pest or weed control at 100 µg/mL (cucumber powdery mildew; Cucumis sativus) | inhibition at 1.6 ppm (Botrytis cinerea; read-out: Growth Inhibition B.c (1.6)) | Control Value (wheat powdery mildew [1]) | Relative Mobility (wheat powdery mildew [2]) | Control Value (cucumber powdery mildew) | Growth Inhibition B.c (1.6) (Botrytis cinerea) |
| --- | --- | --- | --- | --- | --- | --- | --- |
| COc1cccc(CC(C)CN(C)Cc2ccc(Cl)nc2)c1 (stereo not drawn) [(m-3), 6-chloro-N-[3-(3-methoxyphenyl)-2-methylpropyl]-N-methyl-3-pyridylmethylamine, reference compound] | 0% | 0% | < 20% |  |  |  |  |
| CC(Cc1cc(C(F)(F)F)cc(C(F)(F)F)c1)CN(C)Cc1ccc(Cl)nc1 (stereo not drawn) [Compound I-1] |  |  |  | 100 | 3 | 100 | 4 (Hypha extension inhibition rate of from 70% to less than 90%) |
| CC(Cc1ccc(C(F)(F)F)cc1C(F)(F)F)CN(C)Cc1ccc(Cl)nc1 (stereo not drawn) [Compound I-2] |  |  |  | 100 | 3 | 100 | 4 (Hypha extension inhibition rate of from 70% to less than 90%) |
| CC(Cc1cc(C(F)(F)F)ccc1C(F)(F)F)CN(C)Cc1ccc(Cl)nc1 (stereo not drawn) [Compound I-3] |  |  |  | 90 | 3 | 100 | 4 (Hypha extension inhibition rate of from 70% to less than 90%) |
| CC(Cc1cc(C(F)F)cc(C(F)(F)F)c1)CN(C)Cc1ccc(Cl)nc1 (stereo not drawn) [Compound I-4] |  |  |  | 100 | 3 | 80 | 4 (Hypha extension inhibition rate of from 70% to less than 90%) |
| CC(Cc1cc(Cl)cc(C(F)(F)F)c1)CN(C)Cc1ccc(Cl)nc1 (stereo not drawn) [Compound I-5] |  |  |  | 100 | 3 | 100 | 4 (Hypha extension inhibition rate of from 70% to less than 90%) |
| CC(Cc1cc(F)cc(C(F)(F)F)c1)CN(C)Cc1ccc(Cl)nc1 (stereo not drawn) [Compound I-6] |  |  |  | 100 | 5 | 100 | 4 (Hypha extension inhibition rate of from 70% to less than 90%) |
| CC(Cc1cccc(C(F)(F)F)c1F)CN(C)Cc1ccc(Cl)nc1 (stereo not drawn) [Compound I-7] |  |  |  | 100 | 5 | 90 | 4 (Hypha extension inhibition rate of from 70% to less than 90%) |
| CC(Cc1c(F)c(F)c(C(F)(F)F)c(F)c1F)CN(C)Cc1ccc(Cl)nc1 (stereo not drawn) [Compound I-11] |  |  |  | 90 | 5 | 100 | 4 (Hypha extension inhibition rate of from 70% to less than 90%) |
| CC(Cc1ccc(OC(F)F)cc1)CN(C)Cc1ccc(Cl)nc1 (stereo not drawn) [Compound I-13] |  |  |  | 100 | 9 | 100 | 4 (Hypha extension inhibition rate of from 70% to less than 90%) |
| CC(Cc1ccc(OC(F)(F)C(F)C(F)(F)F)cc1)CN(C)Cc1ccc(Cl)nc1 (stereo not drawn) [Compound I-14] |  |  |  | 100 | 7 | 100 | 4 (Hypha extension inhibition rate of from 70% to less than 90%) |
| CC(Cc1ccc(Cl)c(OC(F)(F)F)c1)CN(C)Cc1ccc(Cl)nc1 (stereo not drawn) [Compound I-15] |  |  |  | 100 | 9 | 100 | 4 (Hypha extension inhibition rate of from 70% to less than 90%) |
| CC(Cc1ccc(OC(F)(F)F)c(Cl)c1)CN(C)Cc1ccc(Cl)nc1 (stereo not drawn) [Compound I-18] |  |  |  | 100 | 8 | 100 | 5 (Hypha extension inhibition rate of 90% or more) |
| CC(Cc1ccc(OC(F)(F)Br)c(Cl)c1)CN(C)Cc1ccc(Cl)nc1 (stereo not drawn) [Compound I-19] |  |  |  | 100 | 8 | 100 | 4 (Hypha extension inhibition rate of from 70% to less than 90%) |
| CC(Cc1cc(Cl)c(F)c(Cl)c1)CN(C)Cc1ccc(Cl)nc1 (stereo not drawn) [Compound I-22] |  |  |  | 100 | 3 | 100 | 4 (Hypha extension inhibition rate of from 70% to less than 90%) |
| CC(Cc1c(F)c(F)c(F)c(F)c1F)CN(C)Cc1ccc(Cl)nc1 (stereo not drawn) [Compound I-23] |  |  |  | 100 | 4 | 70 | 4 (Hypha extension inhibition rate of from 70% to less than 90%) |
| CC(Cc1ccc2c(c1)OC(Cl)(Cl)O2)CN(C)Cc1ccc(Cl)nc1 (stereo not drawn) [Compound I-25] |  |  |  | 100 | 3 | 100 | 4 (Hypha extension inhibition rate of from 70% to less than 90%) |
| CC(Cc1ccc2c(c1)OC(F)(F)C(F)(F)O2)CN(C)Cc1ccc(Cl)nc1 (stereo not drawn) [Compound I-26] |  |  |  | 100 | 3 | 100 | 4 (Hypha extension inhibition rate of from 70% to less than 90%) |
| CC(Cc1ccc2c(c1)C(F)(F)OC(F)(F)O2)CN(C)Cc1ccc(Cl)nc1 (stereo not drawn) [Compound I-27] |  |  |  | 100 | 3 | 100 | 4 (Hypha extension inhibition rate of from 70% to less than 90%) |
